One assay deals with T1, Kv1.3 potassium channel (Homo sapiens, UniProt P22001).
T1 construct: expressed in transfected cells
Briefly: Kv1.3 potassium channel blocker activity, automated whole-cell patch clamp (Patchliner). Type of assay: cell-based. As to conditions: CHO-K1 cells stably expressing Kv1.3; whole-cell current, Hill fit. Summed up: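 Stably transfected CHO-K1 cells, whole-cell automated patch clamp: 100 ms pulses from −90 to +40 mV at 0.1 Hz, 20-pulse trains, cumulative concentrations 30 nM–100 μM without washout (≤0.3% DMSO), external pH 7.4. IC50 from Hill fit of last-pulse peak/AUC normalized to compound-free control.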

In a further assay the target is T2, hERG channel (Homo sapiens, UniProt Q12809).
T2 construct: expressed in transfected cells
T2 sequence (Q12809 whole entry): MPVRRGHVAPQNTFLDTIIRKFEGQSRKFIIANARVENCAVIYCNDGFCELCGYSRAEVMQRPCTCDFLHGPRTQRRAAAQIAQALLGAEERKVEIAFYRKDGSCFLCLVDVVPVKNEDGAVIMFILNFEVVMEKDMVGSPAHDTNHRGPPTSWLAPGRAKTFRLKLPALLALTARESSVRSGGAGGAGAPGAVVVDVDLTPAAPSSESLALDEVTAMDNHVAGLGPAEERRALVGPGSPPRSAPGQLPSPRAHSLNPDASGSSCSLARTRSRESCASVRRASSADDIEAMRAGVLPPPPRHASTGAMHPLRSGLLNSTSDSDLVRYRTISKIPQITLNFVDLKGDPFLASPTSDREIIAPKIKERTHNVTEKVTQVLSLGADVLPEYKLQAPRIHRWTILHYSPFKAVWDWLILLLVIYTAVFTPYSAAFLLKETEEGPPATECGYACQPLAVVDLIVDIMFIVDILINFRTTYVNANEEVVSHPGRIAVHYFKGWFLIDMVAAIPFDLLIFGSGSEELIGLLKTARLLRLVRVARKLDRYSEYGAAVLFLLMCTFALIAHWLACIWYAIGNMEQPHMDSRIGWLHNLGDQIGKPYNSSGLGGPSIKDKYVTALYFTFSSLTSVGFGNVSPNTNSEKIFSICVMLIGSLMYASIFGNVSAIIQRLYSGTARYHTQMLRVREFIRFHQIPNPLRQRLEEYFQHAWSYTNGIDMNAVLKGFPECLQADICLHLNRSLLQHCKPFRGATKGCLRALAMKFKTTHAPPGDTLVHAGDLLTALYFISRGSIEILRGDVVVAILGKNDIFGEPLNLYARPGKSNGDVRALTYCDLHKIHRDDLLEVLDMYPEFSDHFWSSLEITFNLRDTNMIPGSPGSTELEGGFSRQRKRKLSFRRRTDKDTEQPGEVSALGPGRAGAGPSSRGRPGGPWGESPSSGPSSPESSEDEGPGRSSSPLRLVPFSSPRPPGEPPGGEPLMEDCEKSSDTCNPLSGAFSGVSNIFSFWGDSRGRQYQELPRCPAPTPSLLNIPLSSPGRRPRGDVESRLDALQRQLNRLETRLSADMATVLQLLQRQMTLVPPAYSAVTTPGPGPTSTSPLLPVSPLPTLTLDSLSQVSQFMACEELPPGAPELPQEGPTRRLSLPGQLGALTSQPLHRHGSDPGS
Briefly: hERG electrophysiology, automated whole-cell patch clamp (Patchliner). Conditions: CHO-K1 cells stably expressing hERG; whole-cell current, Hill fit. Type of assay: cell-based. The protocol: Example 10. Evaluation of hERG Activities
This assay is used to evaluate the disclosed compounds' inhibition activities against the hERG channel.
CHO-K1 cells stably expressing hERG were grown in Ham's F-12 Medium with Glutamine containing 10% heat-inactivated FBS, 1% Penicillin/Streptomycin, Hygromycin (100 μg/ml) and G418 (100 μg/ml). Cells were grown in culture flasks at 37° C. in a 5% CO2-humidified incubator.
The cells were bathed in an extracellular solution containing 140 mM NaCl, 4 mM KCl, 2 mM CaCl2), 1 mM MgCl2, 5 mM Glucose, 10 mM HEPES; pH adjusted to 7.4 with NaOH; 295-305 mOsm. The internal solution contained 50 mM KCl, 10 mM NaCl, 60 mM KF, 20 mM EGTA, 10 mM HEPES; pH adjusted to 7.2 with KOH; 285 mOsm. All compounds were dissolved in DMSO at 30 mM. Compound stock solutions were freshly diluted with external solution to concentrations of 30 nM, 100 nM, 300 nM, 1 μM, 3 μM, 10 μM, 30 μM and 100 μM. The highest content of DMSO (0.3%) was present in 100 μM.
The voltage protocol (see Table B) was designed to simulate voltage changes during a cardiac action potential with a 300 ms depolarization to +20 mV (analogous to the plateau phase of the cardiac action potential), a repolarization for 300 ms to −50 mV (inducing a tail current) and a final step to the holding potential of −80 mV. The pulse frequency was 0.3 Hz. Control (compound-free) and compound pulse trains for each compound concentration applied contained 70 pulses.
Whole-cell current recordings and compound application were enabled by means of an automated patch clamp platform Patchliner (Nanion). EPC 10 patch clamp amplifier (HEKA) along with Patchmaster software (HEKA Elektronik Dr. Schulze GmbH) was used for data acquisition. Data were sampled at 10 kHz without filtering. Increasing compound concentrations were applied consecutively to the same cell without washouts in between.
AUC and PEAK values were obtained with Patchmaster (HEKA Elektronik Dr. Schulze GmbH). To determine IC50 the last single pulse in the pulse train corresponding to a given compound concentration was used. Obtained AUC and PEAK values in the presence of compound were normalized to control values in the absence of compound. Using Origin (OridinLab), IC50 was derived from data fit to Hill equation: Icompound/Icontrol=(100−A)/(1+([compound]/IC50)nH)+A, where IC50 is the concentration at which current inhibition is half-maximal, [compound] is the applied compound concentration, A is the fraction of current that is not blocked and nH is the Hill coefficient.

The source of these data is patent US20230040182A1, “ARYL HETEROBICYCLIC COMPOUNDS AS Kv1.3 POTASSIUM SHAKER CHANNEL BLOCKERS” (priority 2019, published 2023).

Structures are written as SMILES.

T1 sequence (P22001 whole entry): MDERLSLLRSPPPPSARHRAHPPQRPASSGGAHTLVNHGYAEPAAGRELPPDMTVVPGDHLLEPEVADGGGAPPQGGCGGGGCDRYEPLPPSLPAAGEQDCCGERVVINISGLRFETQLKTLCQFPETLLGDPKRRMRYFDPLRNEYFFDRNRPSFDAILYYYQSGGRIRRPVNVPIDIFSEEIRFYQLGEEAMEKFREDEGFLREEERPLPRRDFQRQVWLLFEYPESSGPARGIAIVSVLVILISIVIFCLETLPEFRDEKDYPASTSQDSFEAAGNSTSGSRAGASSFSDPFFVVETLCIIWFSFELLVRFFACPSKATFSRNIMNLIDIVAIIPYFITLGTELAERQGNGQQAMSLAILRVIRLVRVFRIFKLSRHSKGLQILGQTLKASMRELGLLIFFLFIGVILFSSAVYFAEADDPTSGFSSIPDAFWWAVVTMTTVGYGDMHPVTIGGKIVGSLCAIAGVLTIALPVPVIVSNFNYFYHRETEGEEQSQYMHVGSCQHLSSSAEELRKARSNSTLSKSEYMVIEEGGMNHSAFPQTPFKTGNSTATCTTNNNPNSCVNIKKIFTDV

As to `O=C1[C@@H]2C[C@H](c3c(O)ccc(Cl)c3Cl)CCN2C(=O)CN1C(CO)CO` [Compound 32, (8R,9aS)-8-(2,3-dichloro-6-hydroxyphenyl)-2-(1,3-dihydroxypropan-2-yl)hexahydro-4H-pyrido[1,2-a]pyrazine-1,4(6H)-dione], the values for the IC50 against Kv1.3 potassium channel and on hERG channel were under 1 µM and over 30 µM, respectively.

Take `CN1CC(=O)N2CCC(c3c(O)ccc(Cl)c3Cl)CC2C1=O` (centres unmarked) [Compound 36, 8-(2,3-dichloro-6-hydroxyphenyl)-2-methyl-octahydro-1H-pyrido[1,2-a]pyrazine-1,4-dione]: the IC50 (commonly the concentration at which inhibition is half-maximal) is under 1 µM against Kv1.3 potassium channel and over 30 µM against hERG channel.

On to `O=C1NCC(=O)N2CC[C@@H](c3c(O)ccc(Cl)c3Cl)C[C@@H]12` [Compound 41, (8R,9aS)-8-(2,3-dichloro-6-hydroxyphenyl)hexahydro-4H-pyrido[1,2-a]pyrazine-1,4(6H)-dione], for which the IC50 on Kv1.3 potassium channel was under 1 µM; against hERG channel, over 30 µM.

For the molecule `O=C1[C@@H]2C[C@H](c3cc(Cl)c(Cl)cc3O)CCN2C(=O)CN1C1CNC1` [Compound 50, (8R,9aS)-2-(azetidin-3-yl)-8-(4,5-dichloro-2-hydroxyphenyl)hexahydro-4H-pyrido[1,2-a]pyrazine-1,4(6H)-dione], the figures for the 50% inhibitory concentration (IC50) at Kv1.3 potassium channel and on hERG channel were under 1 µM and over 30 µM, respectively.

As for `O=C1[C@@H]2C[C@H](c3c(O)ccc(Cl)c3Cl)CCN2C(=O)[C@H]2C[C@@H](O)CN12` [Compound 52, (2R,5aS,7R,11aR)-7-(2,3-dichloro-6-hydroxyphenyl)-2-hydroxyhexahydro-1H-pyrido[1,2-a]pyrrolo[1,2-d]pyrazine-5,11(5aH,11aH)-dione], the IC50 was under 1 µM against Kv1.3 potassium channel and over 30 µM on hERG channel.

Take `O=C1N[C@@H](CO)C(=O)N2CC[C@@H](c3c(O)ccc(Cl)c3Cl)C[C@@H]12` [Compound 53, (3S,8R,9aS)-8-(2,3-dichloro-6-hydroxyphenyl)-3-(hydroxymethyl)hexahydro-4H-pyrido[1,2-a]pyrazine-1,4(6H)-dione]: the IC50 at Kv1.3 potassium channel was under 1 µM; against hERG channel, over 30 µM.

With `C[C@H]1NC(=O)[C@@H]2C[C@H](c3c(O)ccc(Cl)c3Cl)CCN2C1=O` [Compound 58, (3R,8R,9aS)-8-(2,3-dichloro-6-hydroxyphenyl)-3-methyl-hexahydro-2H-pyrido[1,2-a]pyrazine-1,4-dione], the IC50 is under 1 µM at Kv1.3 potassium channel and over 30 µM against hERG channel.

`O=C1N[C@H](CO)C(=O)N2CC[C@@H](c3c(O)cc(Cl)c(Cl)c3Cl)C[C@@H]12` [Compound 60, (8R,9aS)-3-((3R)-hydroxymethyl)-8-(2,3,4-trichloro-6-hydroxyphenyl)-hexahydro-2H-pyrido[1,2-a]pyrazine-1,4-dione]: the IC50 was under 1 µM at Kv1.3 potassium channel and over 30 µM against hERG channel.

Take `O=C1[C@H]2C[C@@H](c3c(O)ccc(Cl)c3Cl)CCN2C(=O)CN1C1CNC1` [Compound 64, (8S,9aR)-2-(azetidin-3-yl)-8-(2,3-dichloro-6-hydroxyphenyl)-octahydro-1H-pyrido[1,2-a]pyrazine-1,4-dione]: the concentration for half-maximal inhibition (IC50) against Kv1.3 potassium channel is under 1 µM; at hERG channel, over 30 µM.

With `NN1C(=O)[C@@H]2C[C@H](c3c(O)ccc(Cl)c3Cl)CCN2C1=O` [Compound 68, (7R,8aS)-2-amino-7-(2,3-dichloro-6-hydroxyphenyl)tetrahydro-imidazo[1,5-a]pyridine-1,3(2H,5H)-dione], the IC50 against Kv1.3 potassium channel was under 1 µM; against hERG channel, over 30 µM.
